Measurements published in patent US9944660B2, “Tricyclic benzoxaboroles as antibacterial agents” (Daiichi Sankyo Company, Limited, priority 2014, dated 2018).

Key:
[1] = Oral bioavailability (BA) in rats; format: in vivo; settings: male, rat, plasma, 8.5 mg/kg body weight; Sprague Dawley Rats, 8.5 mg/kg oral, 4.25 mg/kg intravenous; read-out: oral absolute bioavailability
Method: (Test Example 8a) Oral Bioavailability (BA) in Rats
To Male Sprague Dawley Rats (215±10 g) test compound was administered as 2.0 mg/mL solution in milli-Q water (pH 5.0) by intravenous and oral route. The final dose was 4.25 mg/kg body weight (intravenous) or 8.5 mg/kg body weight (oral). Plasma samples analyzed for test compound using LC-MS/MS method. Estimation of pharmacokinetic parameters was done by using moment analysis. WinNonlin software 6.1 (Pharsight) was utilized for the estimation of PK parameters and oral bioavailability.

P. aeruginosa PAO-1 = test: In vivo efficacy in P. aeruginosa PAO1 murine lung infection model; settings: subcutaneous 75 mg/kg twice daily
Method: (Test Example 3c) In Vivo Efficacy in P. aeruginosa PAO1 Murine Lung Infection Model Overnight grown culture of P. aeruginosa PAO-1 on TSA agar was inoculated in Brain heart infusion broth (BHI, DIFCO) and grown in a shaker incubator with shaking at 110 rpm at 35±2° C. overnight. The culture was subcultured in 50 mL of BHI and incubated again at 110 rpm at 35±2° C. on a shaker incubator till the optical density of the culture reaches 0.5-0.7 units. For infection, animals were weighed, randomized and anesthetized by giving isofluorane. Under anesthesia the animals were infected with 50 μL of the inoculum prepared as above by intranasal route. The test compounds were administered at 75 mg/kg body weight by subcutaneous route after 1 hour and 6 hours post infection. Animals were euthanized, lungs were removed aseptically and homogenized in PBS (3 mL) and serial dilutions plated on TSA plates 24 hours post infection.

[2] = Oral bioavailability (BA) in mouse; format: in vivo; settings: female, plasma, 8.5 mg/kg body weight, Swiss mice, 8.5 mg/kg oral, 4.25 mg/kg intravenous, read-out: oral absolute bioavailability
Method: (Test Example 8b) Oral Bioavailability (BA) in Mouse
To Female Swiss mouse (23±3 g) test compound was administered as 0.5 mg/mL intravenous and 1 mg/mL oral solution in milli-Q water (pH 5.0). The final dose was 4.25 mg/kg body weight (intravenous) and 8.5 mg/kg body weight (oral route). Plasma samples analyzed for test compound using LC-MS/MS method. Estimation of pharmacokinetic parameters was done by using moment analysis. WinNonlin software 6.1 (Pharsight) was utilized for the estimation of PK parameters and oral bioavailability.

P. aeruginosa = test: Bacterial susceptibility testing (MIC, CLSI microdilution); format: cell-based; settings: Pseudomonas aeruginosa, strain not stated, read-out: MIC against P. aeruginosa
Method: (§1) (Test Example 2) Method of Testing Susceptibility of Bacterial [MICs]
(§2) Minimum inhibitory concentration (MIC) were determined as recommended by the Clinical and Laboratory Standards Institute (CLSI) in 2010 (M100-520), in 2011 (M100-521), 2012 (M100-522) and in 2013 (M100-523) with minor modifications.
(§3) In short, bacterial cultures were streaked on Muller Hinton Agar plates and incubated at 35±2° C. for about 18 to 20 hours. Following day colony suspension was prepared in saline and adjusted to 0.5 McFarland using Densitometer. This culture was further diluted 100 fold in Muller Hinton Broth or M9 minimal media or pooled human urine and used for MIC determination. The test compounds were prepared in dimthylesulfoxide (DMSO) at concentration of 1 mg/mL, and diluted to 32 μg/mL in respective media. Further two fold serial dilution were prepared in 96 well microtiter plates. 50 μL of diluted cultures were added to all wells and incubated at 35±2° C. for about 16 to 20 hours.

K. pneumoniae ATCC 13883 = test: as above; format: cell-based; settings: Klebsiella pneumoniae, ATCC13883
Method: as §1, §2, §3

E. coli ATCC 25922 = test: as above; format: cell-based; settings: Escherichia coli, ATCC25922
Method: as §1, §2, §3

Cl.NC[C@H]1OB(O)c2ccc3c(c21)OCO3 (single isomer, unassigned) [Compound 6]
bioavailability [1]: 72%
log reduction in cfu from 24 hours untreated control (P. aeruginosa PAO-1): 4.04 log
log reduction in cfu's from baseline (P. aeruginosa PAO-1): 2.58 log
bioavailability [2]: 62%
MIC (P. aeruginosa): 2 µg/mL
MIC (K. pneumoniae ATCC 13883): 1 µg/mL
MIC (E. coli ATCC 25922): 1 µg/mL
